Results from publication PMC5336394 (Structure (London, England : 1993), 2017).

System: CypA
Assay: HA peptide isomerization
Type: biochemical
Settings: Pro2 of the HA peptide

YPTDVPDYA [HA]
isomerization at Pro2: not isomerized by CypA
